Measured values from BindingDB's records for doi:10.7270/Q2FF3QRT (University of Pittsburgh, 2006).

Target: T1, M-phase inducer phosphatase 2 (Homo sapiens, UniProt P30305)
T1 sequence (P30305 whole entry): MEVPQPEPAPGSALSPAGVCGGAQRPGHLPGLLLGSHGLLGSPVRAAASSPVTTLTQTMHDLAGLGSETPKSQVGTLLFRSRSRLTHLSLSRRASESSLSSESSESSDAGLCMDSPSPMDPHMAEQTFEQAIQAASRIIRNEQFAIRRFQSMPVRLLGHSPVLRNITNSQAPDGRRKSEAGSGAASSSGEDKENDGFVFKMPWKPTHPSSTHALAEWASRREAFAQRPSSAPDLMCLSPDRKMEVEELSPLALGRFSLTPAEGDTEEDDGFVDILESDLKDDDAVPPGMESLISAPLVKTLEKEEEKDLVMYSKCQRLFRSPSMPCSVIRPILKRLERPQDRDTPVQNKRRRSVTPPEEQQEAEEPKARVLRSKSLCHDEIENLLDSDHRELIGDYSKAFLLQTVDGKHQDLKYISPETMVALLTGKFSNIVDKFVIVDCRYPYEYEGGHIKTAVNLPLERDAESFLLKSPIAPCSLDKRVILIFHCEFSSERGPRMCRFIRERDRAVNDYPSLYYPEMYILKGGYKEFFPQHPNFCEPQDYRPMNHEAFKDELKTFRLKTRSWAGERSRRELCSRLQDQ
Experiment: inhibition of Cdc25B catalytic domain activity – biochemical, dose response, selectivity assay, confirmation (AID 443)

IC50 | SMILES
31.5 µM | COc1ccc(Cn2c(C)nc3c(c2=O)c2nc4ccccc4nc2n3Cc2ccco2)cc1 [MLS000079944]
10.6 µM | Cc1ccc2c(c1C)NC(C(=O)O)C1CC=CC21 (stereo not given)
13.1 µM | CC(C)Cn1c(N)c(C(=O)COC(=O)c2cc(-c3ccco3)nc3ccccc23)c(=O)n(C)c1=O [2-(2-furanyl)-4-quinolinecarboxylic acid [2-[4-amino-1-methyl-3-(2-methylpropyl)-2,6-dioxo-5-pyrimidinyl]-2-oxoethyl] ester]
43.1 µM | CCCCC[C@H](O)C=C[C@H]1C=CC(=O)[C@@H]1C/C=C\CCCC(=O)O [(Z)-7-[(1R,5S)-2-oxidanylidene-5-[(E,3S)-3-oxidanyloct-1-enyl]cyclopent-3-en-1-yl]hept-5-enoic acid]

SMILES | IC50
CCn1nc(-c2ccccc2)nc2c(=O)n(C)c(=O)nc1-2 [1-Ethyl-6-methyl-3-phenyl-1H-pyrimido[5,4-e][1,2,4]triazine-5,7-dione] | 0.223 µM
